Source: US20260345517A1, “DOSAGE REGIMENS FOR TREATING STARGARDT DISEASE” (Alkeus Pharmaceuticals, Inc., priority 2024, published 2026)

Assay: TEASE-1: safety and adverse events
Assay type: in vivo, human
Method: The Tolerability and Effects of gildeuretinol acetate in Stargardt Disease (Clinical trial group 1 also known as TEASE-1) was a 24-month, multicenter, double-masked, placebo-controlled trial designed to evaluate the efficacy and safety of daily oral gildeuretinol acetate in slowing the growth of atrophic retinal lesions in Stargardt disease patients. The trial was conducted at multiple sites in the United States (NCT02402660).
Patients 12 years or older, clinically diagnosed with Stargardt disease, with at least one ABCA4 mutation, at least one eye presenting with well-demarcated areas of reduced fundus autofluorescence, and with any visual acuity, were eligible.
Patients were randomized to gildeuretinol acetate 14 mg capsules, gildeuretinol acetate 24 mg capsules, or placebo capsules, to be taken once daily for one year. After one year, 50% of randomly selected patients receiving placebo were crossed over in a 1:1 ratio to gildeuretinol acetate 14 mg capsules or gildeuretinol acetate 24 mg capsules for a second year.
Gildeuretinol acetate and placebo capsules were identical appearing capsules. Patients were advised to avoid vitamin A-containing supplements and liver-based products. Fruits and vegetables contain beta-carotene, not preformed vitamin A, and could be consumed without limitation. Trial visits occurred at 8 weeks and 6, 12, 18, and 24 months following screening and randomization.

CC(=O)OC/C=C(C)/C=C/C=C(C)/C=C/C1=C(C)CCCC1(C)C [gildeuretinol acetate, C20-D3-retinol acetate]
2 (13.3) patients (%): Vitamin D decreased (14 mg, N = 15) | Cough (24 mg, N = 15) | Headache (24 mg, N = 15)
1 (6.7) patients (%): Photopsia (14 mg, N = 15) | Plantar fasciitis (14 mg, N = 15) | Punctate keratitis (14 mg, N = 15) | Radius fracture (14 mg, N = 15) | Rash (14 mg, N = 15) | Sialoadenitis (14 mg, N = 15) | Sinusitis (14 mg, N = 15) | Sjogren's syndrome (14 mg, N = 15) | Subdural haematoma (14 mg, N = 15) | Tendonitis (14 mg, N = 15) | Tongue dry (14 mg, N = 15) | Upper respiratory tract infection (14 mg, N = 15) | Vision blurred (14 mg, N = 15) | Visual impairment (14 mg, N = 15) | Vitamin B12 deficiency (14 mg, N = 15) | Vitreous floaters (14 mg, N = 15) | Abdominal discomfort (24 mg, N = 15) | Abdominal distension (24 mg, N = 15) | Abdominal pain upper (24 mg, N = 15) | Abnormal dreams (24 mg, N = 15) | Arthralgia (24 mg, N = 15) | Back pain (24 mg, N = 15) | Blood cholesterol increased (24 mg, N = 15) | Blood iron decreased (24 mg, N = 15) | Blood pressure increased (24 mg, N = 15) | Bowel movement irregularity (24 mg, N = 15) | Conjunctival laceration (24 mg, N = 15) | Constipation (24 mg, N = 15) | Diplopia (24 mg, N = 15) | Dry eye (24 mg, N = 15) | Dry skin (24 mg, N = 15) | Ear discomfort (24 mg, N = 15) | Eye pain (24 mg, N = 15) | Eye pruritus (24 mg, N = 15) | Fall (24 mg, N = 15) | Gastroenteritis viral (24 mg, N = 15) | Hordeolum (24 mg, N = 15) | Hypertension (24 mg, N = 15) | Hypobarism (24 mg, N = 15) | Hypothyroidism (24 mg, N = 15) | Hysterectomy (24 mg, N = 15)
0 patients (%): Pleurisy (14 mg, N = 15) | Pneumonia (14 mg, N = 15) | Premenstrual syndrome (14 mg, N = 15) | Pyrexia (14 mg, N = 15) | Rotator cuff syndrome (14 mg, N = 15) | Sinus congestion (14 mg, N = 15) | Skin infection (14 mg, N = 15) | Syncope (14 mg, N = 15) | Thoracic outlet syndrome (14 mg, N = 15) | Tooth abscess (14 mg, N = 15) | Tooth extraction (14 mg, N = 15) | Toothache (14 mg, N = 15) | Visual field defect (14 mg, N = 15) | Vulvovaginal candidiasis (14 mg, N = 15) | Wrist fracture (14 mg, N = 15) | Xanthelasma (14 mg, N = 15) | Alanine aminotransferase increased (24 mg, N = 15) | Alopecia (24 mg, N = 15) | Ankle fracture (24 mg, N = 15) | Arthritis (24 mg, N = 15) | Aspartate aminotransferase increased (24 mg, N = 15) | Back injury (24 mg, N = 15) | Blepharospasm (24 mg, N = 15) | Blood creatinine increased (24 mg, N = 15) | Blood triglycerides increased (24 mg, N = 15) | Bronchitis (24 mg, N = 15) | Cartilage injury (24 mg, N = 15) | Conjunctivitis (24 mg, N = 15) | Death (24 mg, N = 15) | Depression (24 mg, N = 15) | Diarrhoea (24 mg, N = 15) | Dry mouth (24 mg, N = 15) | Ear infection (24 mg, N = 15) | Ear pain (24 mg, N = 15) | Eczema (24 mg, N = 15) | Electrocardiogram abnormal (24 mg, N = 15) | Erythema (24 mg, N = 15) | Eye irritation (24 mg, N = 15) | Face injury (24 mg, N = 15) | Faeces soft (24 mg, N = 15) | Gastroenteritis (24 mg, N = 15) | Hair texture abnormal (24 mg, N = 15) | Hand fracture (24 mg, N = 15) | Herpes zoster (24 mg, N = 15)
13 (86.7) patients (%): Adverse events, Overall (24 mg, N = 15)
observed in one patient: blurred optic disc margins with transient visual obscuration (24 mg, 12-month visit, ocular exam)
